# Measurements reported in patent publication US7625875B2 (priority 2002, dated 2009).
# Where two headings read alike, the source gives them in different places.
# How the values were obtained:
# DENV 2 = assay: microbe, parasite or virus in culture; type: cell-based, dengue virus; settings: Dengue virus, read-out: DENV 2
# WNV = assay: microbe, parasite or virus in culture; type: cell-based, West Nile virus; settings: West Nile virus, read-out: WNV
# Sb-1 = assay: organism not typed; type: cell-based, Sabin type 1 poliomyelitis virus; settings: read-out: Sb-1
# HCV = assay: Clinical antiviral activity, serum HCV RNA (Amplicor HCV Monitor), val-mCyd daily for 15 days; settings: 50 mg
structure (smiles),measurement,setting,value
"CC(C)C(N)C(=O)OC1[C@@H](CO)O[C@@H](n2ccc(N)nc2=O)[C@@]1(C)O (some centres unmarked) [val-mCyd, 2-Amino-3-methyl-butyric acid 5-(4-amino-2-oxo-2H-pyrimidine-1-yl)-4-hydroxy-2 hydroxy-methyl-4-methyl-tetrahydro-furan-3-yl ester]",mean reduction from baseline HCV viral load,"HCV genotype 1; 8.3 mg/kg/day dose group, end of treatment (day 7)",0.83 log10
same,Change in baseline Log10 HCV RNA viral load,"HCV genotype 1; 8.3 mpk, animal 500, site 1, Day 2",−1.156 log10
same,Change in baseline Log10 HCV RNA viral load,"HCV genotype 1; 8.3 mpk, animal 500, site 1, Day 5",−0.4038 log10
same,Change in baseline Log10 HCV RNA viral load,"HCV genotype 1; 8.3 mpk, animal 500, site 1, Day 7",−0.8051 log10
same,Change in baseline Log10 HCV RNA viral load,"HCV genotype 1; 8.3 mpk, animal 500, site 2, Day 2",−1.079 log10
same,Change in baseline Log10 HCV RNA viral load,"HCV genotype 1; 8.3 mpk, animal 500, site 2, Day 5",−0.5503 log10
same,Change in baseline Log10 HCV RNA viral load,"HCV genotype 1; 8.3 mpk, animal 500, site 2, Day 7",−1.063 log10
same,Change in baseline Log10 HCV RNA viral load,"HCV genotype 1; 8.3 mpk, animal 501, site 1, Day 2",−0.2518 log10
same,Change in baseline Log10 HCV RNA viral load,"HCV genotype 1; 8.3 mpk, animal 501, site 1, Day 5",−0.3618 log10
same,Change in baseline Log10 HCV RNA viral load,"HCV genotype 1; 8.3 mpk, animal 501, site 1, Day 7",−0.4361 log10
same,Change in baseline Log10 HCV RNA viral load,"HCV genotype 1; 8.3 mpk, animal 501, site 2, Day 2",−0.452 log10
same,Change in baseline Log10 HCV RNA viral load,"HCV genotype 1; 8.3 mpk, animal 501, site 2, Day 5",−0.7125 log10
same,Change in baseline Log10 HCV RNA viral load,"HCV genotype 1; 8.3 mpk, animal 501, site 2, Day 7",−0.9003 log10
same,Change in baseline Log10 HCV RNA viral load,"HCV genotype 1; 16.6 mpk, animal 497, site 1, Day 2",−0.7215 log10
same,Change in baseline Log10 HCV RNA viral load,"HCV genotype 1; 16.6 mpk, animal 497, site 1, Day 5",−0.907 log10
same,Change in baseline Log10 HCV RNA viral load,"HCV genotype 1; 16.6 mpk, animal 497, site 1, Day 7",−1.277 log10
same,Change in baseline Log10 HCV RNA viral load,"HCV genotype 1; 16.6 mpk, animal 497, site 2, Day 2",−0.8556 log10
same,Change in baseline Log10 HCV RNA viral load,"HCV genotype 1; 16.6 mpk, animal 497, site 2, Day 5",−1.02 log10
same,Change in baseline Log10 HCV RNA viral load,"HCV genotype 1; 16.6 mpk, animal 497, site 2, Day 7",−1.514 log10
same,Change in baseline Log10 HCV RNA viral load,"HCV genotype 1; 16.6 mpk, animal 498, site 1, Day 2",−0.2947 log10
same,Change in baseline Log10 HCV RNA viral load,"HCV genotype 1; 16.6 mpk, animal 498, site 1, Day 5",−0.2814 log10
same,Change in baseline Log10 HCV RNA viral load,"HCV genotype 1; 16.6 mpk, animal 498, site 1, Day 7",−0.603 log10
same,Change in baseline Log10 HCV RNA viral load,"HCV genotype 1; 16.6 mpk, animal 498, site 2, Day 2",−0.6585 log10
same,Change in baseline Log10 HCV RNA viral load,"HCV genotype 1; 16.6 mpk, animal 498, site 2, Day 5",−0.5597 log10
same,Change in baseline Log10 HCV RNA viral load,"HCV genotype 1; 16.6 mpk, animal 498, site 2, Day 7",−0.6914 log10
same,HCV viral load,"HCV genotype 1; animal 497, site 2, day 7, pretreatment 535,000","16,500 genomes per ml"
same,EC50,DENV 2,> 100 µM
same,EC50,WNV,82 µM
same,EC50,Sb-1,14 µM
same,"HCV RNA in Log10 scale, mean",HCV; Day 1 (baseline),6.72 log10
same,"HCV RNA in Log10 scale, median",HCV; Day 1 (baseline),6.69 log10
same,"Change from baseline (Day 1) in Log10 HCV RNA, mean",HCV; Day 2,−0.13 log10
same,"Change from baseline (Day 1) in Log10 HCV RNA, median",HCV; Day 2,−0.07 log10
same,"HCV RNA in Log10 scale, mean",HCV; Day 2,6.60 log10
same,"HCV RNA in Log10 scale, median",HCV; Day 2,6.58 log10
same,"Change from baseline (Day 1) in Log10 HCV RNA, mean",HCV; Day 4,−0.16 log10
same,"Change from baseline (Day 1) in Log10 HCV RNA, median",HCV; Day 4,−0.13 log10
same,"HCV RNA in Log10 scale, mean",HCV; Day 4,6.56 log10
same,"HCV RNA in Log10 scale, median",HCV; Day 4,6.55 log10
same,"Change from baseline (Day 1) in Log10 HCV RNA, mean",HCV; Day 8,−0.11 log10
same,"Change from baseline (Day 1) in Log10 HCV RNA, median",HCV; Day 8,−0.06 log10
same,"HCV RNA in Log10 scale, mean",HCV; Day 8,6.62 log10
same,"HCV RNA in Log10 scale, median",HCV; Day 8,6.56 log10
same,"Change from baseline (Day 1) in Log10 HCV RNA, mean",HCV; Day 11,−0.26 log10
same,"Change from baseline (Day 1) in Log10 HCV RNA, median",HCV; Day 11,−0.26 log10
same,"HCV RNA in Log10 scale, mean",HCV; Day 11,6.47 log10
same,"HCV RNA in Log10 scale, median",HCV; Day 11,6.46 log10
same,"Change from baseline (Day 1) in Log10 HCV RNA, mean",HCV; Day 15,−0.15 log10
same,"Change from baseline (Day 1) in Log10 HCV RNA, median",HCV; Day 15,−0.10 log10
same,"HCV RNA in Log10 scale, mean",HCV; Day 15,6.57 log10
same,"HCV RNA in Log10 scale, median",HCV; Day 15,6.57 log10
same,"Change from baseline (Day 1) in Log10 HCV RNA, mean",HCV; Day 16,−0.15 log10
same,"Change from baseline (Day 1) in Log10 HCV RNA, median",HCV; Day 16,−0.13 log10
same,"HCV RNA in Log10 scale, mean",HCV; Day 16,6.57 log10
same,"HCV RNA in Log10 scale, median",HCV; Day 16,6.45 log10
same,"Change from baseline (Day 1) in Log10 HCV RNA, mean",HCV; Day 17,−0.18 log10
